Reference: patent publication US5618812A, “Benzodiazepine derivatives” (Merck Sharp & Dohme, Ltd., priority 1992, dated 1997)
pIC50: −log10 of the molar value. Structures can show the parent of a compound that is named as a salt. Where two headings read alike, the source gives them in different places.

What was measured:
[1] = molecular target: T1, CCK-A (Rattus norvegicus, UniProt P30551); assay: biochemical; assay type: binding; conditions: rat pancreas (CCK-A), 125I-CCK
T1 sequence (P30551 1-444): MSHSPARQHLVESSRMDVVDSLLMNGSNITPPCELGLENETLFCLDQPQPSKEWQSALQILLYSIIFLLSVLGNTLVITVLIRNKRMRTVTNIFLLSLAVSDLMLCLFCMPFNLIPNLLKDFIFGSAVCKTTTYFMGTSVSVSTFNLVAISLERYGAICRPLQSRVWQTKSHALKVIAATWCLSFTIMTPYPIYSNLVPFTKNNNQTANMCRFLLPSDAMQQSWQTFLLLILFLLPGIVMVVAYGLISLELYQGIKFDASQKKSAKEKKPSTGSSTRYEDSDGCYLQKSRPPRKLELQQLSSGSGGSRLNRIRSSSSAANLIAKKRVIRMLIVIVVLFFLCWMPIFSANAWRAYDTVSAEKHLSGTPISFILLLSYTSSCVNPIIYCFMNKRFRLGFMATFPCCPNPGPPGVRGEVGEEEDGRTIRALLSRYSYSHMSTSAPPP
Procedure: (§1) The CCK-A and CCK-B antagonising activity of the compounds described herein was evaluated using the assays described in published European patent application no. 0514133. The method essentially involves determining the concentration of the test compound required to displace 50% of the specific ^125 I-CCK from rat pancreas (CCK-A) or guinea pig brain (CCK-B).

[2] = molecular target: T2, CCK-B (Cavia porcellus, UniProt H0VZC5); assay: displacement of specific 125I-CCK from guinea pig brain (CCK-B receptor binding)
T2 construct: guinea pig brain (CCK-B); from tissue; host or cells: guinea pig brain
T2 sequence (H0VZC5 1-426): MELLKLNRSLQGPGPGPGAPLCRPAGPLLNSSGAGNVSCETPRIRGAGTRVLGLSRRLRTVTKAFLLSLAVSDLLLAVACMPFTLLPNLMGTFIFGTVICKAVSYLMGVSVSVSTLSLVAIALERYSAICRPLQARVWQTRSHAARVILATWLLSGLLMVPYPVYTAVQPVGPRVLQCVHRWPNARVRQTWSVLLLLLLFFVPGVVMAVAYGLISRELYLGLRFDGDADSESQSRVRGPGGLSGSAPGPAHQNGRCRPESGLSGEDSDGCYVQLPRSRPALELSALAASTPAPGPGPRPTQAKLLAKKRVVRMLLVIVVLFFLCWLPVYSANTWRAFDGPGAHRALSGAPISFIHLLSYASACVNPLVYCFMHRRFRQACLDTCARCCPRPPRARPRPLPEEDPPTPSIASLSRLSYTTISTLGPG
Procedure: as §1, with “(CCK-B). The data in Table 1 were obtained for compounds of the Examples.” for “(CCK-B).”

[3] = read-out: CCK RECEPTOR BINDING RESULTS IC50 125I-CCK Pancreas
[4] = read-out: CCK RECEPTOR BINDING RESULTS IC50 125I-CCK Brain
[5] = CCK RECEPTOR BINDING RESULTS IC50 125I-CCK Pancreas
[6] = CCK RECEPTOR BINDING RESULTS IC50 125I-CCK Brain

Compound | pIC50 [1, 3] | pIC50 [2, 4] | pIC50 [1, 5] | pIC50 [2, 6]
CN1C(=O)C(NC(=O)Nc2ccc3c(c2)CCC3)N=C(N2CCC(C)(C)CC2)c2ccccc21 (racemic) [Example 4, N-[3(R,S)-2,3-Dihydro-5-(4,4-dimethylpiperidin-1-yl)-1-methyl-2-oxo-1H-1,4-benzodiazepin-3-yl]N'-[indan-5-yl]urea] | 7.46 | 8.92 |  | 
CN1C(=O)C(NC(=O)c2cc3ccccc3[nH]2)N=C(N2CC3CCC(CC3)C2)c2ccccc21 (racemic) [Example 87, 3(R,S)-N-(5-(3-Azabicyclo[3,2,2]nonan-3-yl)-2,3-dihydro-1-methyl-2-oxo-1H-1,4-benzodiazepin-3-yl)-1H-indole-2-carboxamide] | 9.06 | 6.29 |  | 
Cc1cccc(NC(=O)NC2N=C(N3CC4CCC(CC4)C3)c3ccccc3N(C)C2=O)c1 (racemic) [Example 31, N-[3(R,S)-5-(3-Azabicyclo[3,2,2]nonan-3-yl)-2,3-dihydro-1-methyl-2-oxo-1H-1,4-benzodiazepin-3-yl]-N'-[3-methylphenyl]urea] |  |  | 7.70 | 9.28
(+)-[5-(N-Cycloheptyl-N-methylamino)-2,3-dihydro-1ethyl-2-oxo-1H-1,4-benzodiazepin-3-yl ]-N'-[5-indanyl ]urea Hydrochloride [Example 71] | 6.84 | 7.07 |  | 
CCCN1C(=O)C(NC(=O)Nc2cccc(C)c2)N=C(N2CCC(=O)CC2)c2ccccc21 (racemic) [Example 2, N-[3(R,S)-2,3-Dihydro-2-oxo-5-(4-oxopiperidin-1-yl)-1-propyl-1H-1,4-benzodiazepin-3-yl]N'-[3-methylphenyl] urea] | 6.06 | 8.69 |  | 
Cc1cc(NC(=O)NC2N=C(N3CC4CCC(CC4)C3)c3ccccc3N(C)C2=O)ccc1F (racemic) [Example 52, N-[3(R,S)-5-(3-Azabicyclo[3,2,2]nonan-3-yl)-2,3-dihydro-1-methyl-2-oxo-1H-1,4-benzodiazepin-3-yl)-N'-[4-fluoro-3-methylphenyl]urea] | 7.73 |  |  | 9.60
CN1C(=O)C(NC(=O)c2cc3ccccc3[nH]2)N=C(N2CC3CCC(CC3)C2)c2ccccc21 (single isomer, unassigned; (+)) [Example 89, (+)-N-(5-(3-Azabicyclo[3,2,2]nonan-3-yl)-2,3-ihydro-1-methyl-2-oxo-1H-1,4-benzodiazepin-3-yl)-1H-indole-2-carboxamide dihydrochloride] | 9.59 | 6.19 |  | 
CN1C(=O)C(NC(=O)Nc2cccc(C(F)(F)F)c2)N=C(N2CC3CCC(CC3)C2)c2ccccc21 (racemic) [Example 42, N-[3(R,S)-5-(3-Azabicyclo[3,2,2]nonan-3-yl)-2,3-dihydro-1-methyl-2-oxo-1H-1,4-benzodiazepin-3-yl]-N'-[3-trifluoromethyl-phenyl]urea] | 7.09 |  |  | 8.75
Cc1cccc(NC(=O)NC2N=C(N3CC4CCC(CC4)C3)c3ccccc3N(C)C2=O)c1 (single isomer, unassigned; (+)) [Example 34, (+)-N-[5-(3-Azabicyclo[3,2,2]nonan-3-yl)-2,3-dihydro-1-methyl-2-oxo-1H-1,4-benzodiazepin-3-yl]-N'-[3-methylphenyl]urea Hydrochloride] |  |  | 8.19 | 7.57
CCN1C(=O)C(NC(=O)Nc2cccc(C)c2)N=C(N2CCC(C)(C)CC2)c2ccccc21 (single isomer, unassigned) [Example 30] | 6.46 | 9.44 |  | 
Cc1cccc(NC(=O)NC2N=C(N3[C@H](C)C[C@H](C)C[C@@H]3C)c3ccccc3N(C)C2=O)c1 (single isomer, unassigned) [24 (enantiomer A)] | 5.65 | 9.03 |  | 
Cc1cccc(NC(=O)NC2N=C(N3CCC(C(F)(F)F)CC3)c3ccccc3N(C)C2=O)c1 (single isomer, unassigned) [20 (enantiomer B)] | 7.40 | 7.36 |  | 
COC1CCN(C2=NC(NC(=O)Nc3cccc(C)c3)C(=O)N(C)c3ccccc32)CC1 (single isomer, unassigned) [14 (enantiomer B)] | 7.94 | 6.76 |  | 
Cc1ccc(NC(=O)NC2N=C(N3CC4CCC(CC4)C3)c3ccccc3N(C)C2=O)cc1F (racemic) [Example 44, N-(3(R,S)-5-(3-Azabicyclo[3,2,2]nonan-3-yl)-2,3-dihydro-1-methyl-2-oxo 1H-1,4-benzodiazepin-3-yl]-N'-[3-fluoro-4-methylphenyl]urea] | 7.15 |  |  | 9.28
Cc1cccc(NC(=O)NC2N=C(N3C[C@@H](C)O[C@@H](C)C3)c3ccccc3N(C)C2=O)c1 (stereo partly drawn) [Example 16, N-[3(R,S)-2,3-Dihydro-5-(cis-2,6-dimethylmorpholin-4-yl)-1-methyl-2-oxo-1H-1,4-benzodiazepin-3-yl]N'-[3-methylphenyl]urea] | 5.58 | 7.72 |  | 
Cc1cccc(NC(=O)NC2N=C(N3CCC(C)(C)CC3)c3ccccc3N(CC(F)(F)F)C2=O)c1 (racemic) [Example 27, N-[3(R,S)-2,3-Dihydro-5-(4,4,dimethylpiperidin-1-yl)-2-oxo-1-(2,2,2-trifluoroethyl)-1H-1,4-benzodiazepin-3-yl]N'-(3-methylphenyl) urea] | 7.82 | 7.48 |  | 

The next lines start with results.

pIC50 [1, 3] | pIC50 [2, 4] | Compound | pIC50 [1, 5] | pIC50 [2, 6]
5.77 | 7.87 | CCCN(C1=NC(NC(=O)Nc2cccc(C)c2)C(=O)N(C)c2ccccc21)C1CCCCC1 (racemic) [Example 79, N-[3(R,S)-5-(N-Cyclohexyl-N-propylamino)-2,3-dihydro-1-methyl-2-oxo-1H-benzodiazepin-3-yl]-N'-[3-methylphenyl]urea] |  | 
6.94 | 7.45 | CCCN1C(=O)C(NC(=O)Nc2cccc(C)c2)N=C(N(C)C2CCCCC2)c2ccccc21 (single isomer, unassigned; (+)) [Example 62, (+) 5-(N-Cyclohexyl-N-methylamino)-2,3-dihydro-2-oxo-1-propyl-1H-1,4-benzodiazepin-3-y1-N'-[3-methylphenyl]urea] |  | 
6.55 | 8.44 | Cc1cccc(NC(=O)NC2N=C(N(C)C3CCCCCCC3)c3ccccc3N(C)C2=O)c1 (racemic) [Example 83, N-[3(R,S)-5-(N-Cyclooctyl-N-methylamino)-2,3-dihydro-1-methyl-2-oxo-1H-1,4-benzodiazepin-3-yl]-N'-[3-methylphenyl]urea] |  | 
6.15 | 9.66 | CCCN1C(=O)C(NC(=O)Nc2cccc(C)c2)N=C(N(C)C2CCCCC2)c2ccccc21 (single isomer, unassigned; (-)) [Example 61, (-)-5-(N-Cyclohexyl-N-methylamino)-2,3-dihydro-2-oxo-1-propyl-1H-1,4-benzodiazepin-3-yl-N'[3-methylphenyl]urea] |  | 
6.72 | 8.14 | Cc1cccc(NC(=O)NC2N=C(N(C)CC3CCCCC3)c3ccccc3N(C)C2=O)c1 (racemic) [Example 74] |  | 
7.55 | 8.26 | Cc1cccc(NC(=O)NC2N=C(N3CC4CCC3CC4)c3ccccc3N(C)C2=O)c1 (racemic) [Example 51, N-[3(R,S)-5-(2-Azabicyclo[2,2,2]octan-2-yl)-2,3-dihydro-1-methyl-2-oxo-1H-1,4-benzodiazepin-3-yl]-N'-[3-methylphenyl]urea] |  | 
< 5.52 | 5.85 | Cc1cccc(NC(=O)NC2N=C(N(C)C3CCN(C)CC3)c3ccccc3N(C)C2=O)c1 (racemic) [Example 73, N-[3(R,S)-5-(N-(4-N-Methylpiperidinyl)-N-methylamino)-2,3-dihydro-1-methyl-2-oxo-1H-1,4-benzodiazepin-3-yl]-N'-[3-methylphenyl]urea] |  | 
7.08 | 9.10 | Cc1cccc(NC(=O)NC2N=C(N(C)C3CCCCCC3)c3ccccc3N(C)C2=O)c1 (racemic) [Example 66, N-[3(R,S)-5-(N-Cycloheptyl-N-methylamino)-2,3-dihydro-1-methyl-2-oxo-1H-1,4-benzodiazepin-3-yl]-N'-[3-methylphenyl]urea] |  | 
